Results published in patent publication US20230321124A1, “ROR gamma t Inhibitors and Topical Uses Thereof” (DERMIRA, INC., priority 2020, published 2023).

Tested on: IL-17A protein
Experiment: skin Resident Immune Cell Assay (sRICA), Th17 model, human skin biopsies
Assay type: cell-based
Settings: Example 2, FIG. 1; 10 ul topical, overnight; media harvested 48 hours after activation; N=6
Method: A skin Resident Immune Cell Assay (sRICA) was used to test Compounds 1, 2 and 3 in Formulations as identified in Example 1 for reduction of IL-17A protein upregulation in the Th17 sRICA model. In this model, human surgical skin waste was cultured in a transwell system, with the dermis in contact with cell culture media and the stratum corneum exposed to air. To perform the assay, each human skin sample was defatted and dermatomed to 750 μm. Next, 8 mm punch biopsies were obtained and placed in a membrane transwell. The biopsies were prepared with a barrier ring to contain the formulation and prevent leakage of the formulation. […]
10 ul of the test solvent system was applied to topically prepared sRICA samples and allowed to penetrate the skin overnight. […] An unpaired, two-tailed students T-test was used to determined statistical significance between Th17 treated skin and treatment groups. The performance of the 3 RORγt inhibitors in Formulations representative of creams (Formulations 3-7), aqueous gels (Formulation 8), non-aqueous gels (Formulations 9-10), and ointments (Formulation 11) were evaluated.
All formulations of containing Compound 1 or Compound 2 were created at 80% saturation, except for all non-aqueous gels (NAG) in which saturation has not yet been determined (>12%) and were arbitrarily formulated at 1% or 5% (see Formulation 10 (1%) and Formulation 10 (5%) in Tables 6 and 7). […]

SMILES: C[C@H]1C[C@H]2[C@@H]3CCC4=CC(=O)C=C[C@]4(C)[C@@]3(F)[C@@H](O)C[C@]2(C)[C@@]1(O)C(=O)CCl [Clobetasol]
- Th17-cocktail induced IL17A protein in culture media: complete suppression
